Patent publication US12083196B2, “Personal cleansing compositions with surfactants for increased foam performance” (ECOLAB USA INC., priority 2020, dated 2024)

Experiment: SITA Foam Analyzer foam creation
Assay type: physicochemical
Excerpt: The reagents used below include: • Alpha-Step® PC-48 is a C10-16 sodium methyl 2-sulfolaurate and disodium 2-sulfolaurate available from Stepan; • Stepan-Mild® L3 is a predominantly C12 reaction product of lauryl alcohol and lactic acid available from Stepan; • SLES is sodium laureth sulfate; • Cola® Teric is an amphoteric sultaine available from Colonial Chemical, Inc.; • Glucopon® […] is an alkyl polyglycoside available from BASF Corporation; • Suga® Nate is a sodium laurylglucosides hydrooxypropylsulfonate available from Colonial Chemicals, Inc; • Lathanol® LAL is a sodium lauryl sulfoacetate available from Stepan. All experiments ran through the SITA Foam Analyzer were as follows: Equipment: • 1) Foaming Apparatus • 2) SITA Software Reagents: • 1) 250 mL of each solution • 2) DI water Preparation: Equipment is prepared by turning the water bath on with ample time to warm up before running tests. Adjust water bath to desired temperature. Quality Assurance: Run a positive and negative control for every experiment. Ensure equipment is clean and free from any residual surfactant chemistry beforehand. In each experiment set, proper differentiation between chemistries can be seen if at least one of the tested chemistries has an “S” curve that depicts a change in the initial foam building and the lathering step. Experimental Procedure: • 1) Prepare water bath • 2) Open the “SITA-foam” software on the computer. […] Foam Generation • i. Series Count (cycles): number of measurement replicates (3-triplicate) • ii. Fill With: Volume of sample liquid (250 mL for each test) • iii. Stir Count: Number of stirrings for each test (70). This is also the number of measurements for each cycle. • iv. Stir Time: Stirring duration of sample (10 sec) • v. Revolution: RPM o the stirrer (900 RMP) • b. Cleansing • i. Click the shower icon to activate the automatic cleansing and rinsing function. The vessel will be cleaned automatically after each cycle of measurements. • ii. Normal cleansing will rinse out the vessel many times. Small cleansing indicates a faster cleansing process. All above parameters can be saved • 5) After setting the parameters, click on “Start Measurement” which is the green “Play” button to proceed with the experiment • 6) After each cycle of experiments automatic cleansing and rinsing is done in preparation for the next cycle of measurements as long as the instrument is connected to tap water or a cleansing liquid reservoir • 7) Each click on the green “Start Measurement” icon opens a new window. The current sample measurement results are all in the same project folder. To rename sample measurement files, right click on the open sample window, and click “save” to rename your sample file • 8) If an error occurs at any point with your sample, the measurement reading can be stopped by clicking the red square “Stop icon” or by pressing the large red button on the machine • 9) Organize the graph generated with the icons in the fourth section of the tool bar: create new plot, add/remove data from plot, change axis properties, and view properties. Click on the “Create new plot” icon to view the plot after the experiment is done or if it is still running. Right click to rename the plot, insert or remove the plot and display the foam buildup, foam decay, or both Establishing initial foaming of the single surfactants is important to establish baselines for comparison for the combinations of various surfactants. To establish the foaming properties of single surfactants, a high amount of each surfactant was analyzed in the SITA Foam Analyzer as described above. The final concentration of each surfactant in solution was 1%. The surfactants tested were sodium lauryl sulfate (SLES), a betaine, Cola® Teric CBS, Glucopon® […], Lathanol® LAL, and Suga® Nate 160NC. […] The compositions were tested for foaming using the SITA Foam Analyzer as described above. […]

**Q.** With sodium laureth sulfate [SLES] as the substance, how does the “ability to reach saturation of foam (in words)” value (SLES 0.2 wt. %, second surfactant 0.005 wt. %, FIG. 3) read?
**A.** unable to reach saturation

**Q.** And the foam height (cycle 0, SLES 0.2 wt. %, second surfactant 0.005 wt. %)?
**A.** 0 mL

**Q.** And the foam height (cycle 1, SLES 0.2 wt. %, second surfactant 0.005 wt. %)?
**A.** 147.3 mL

**Q.** What about the foam height (cycle 2, SLES 0.2 wt. %, second surfactant 0.005 wt. %) of the same substance?
**A.** 161 mL

**Q.** What about the foam height (cycle 3, SLES 0.2 wt. %, second surfactant 0.005 wt. %) of the same substance?
**A.** 168.3 mL

**Q.** And the foam height (cycle 4, SLES 0.2 wt. %, second surfactant 0.005 wt. %)?
**A.** 172.67 mL

**Q.** What about the foam height (cycle 5, SLES 0.2 wt. %, second surfactant 0.005 wt. %) of the same substance?
**A.** 174 mL

**Q.** And the foam height (cycle 6, SLES 0.2 wt. %, second surfactant 0.005 wt. %)?
**A.** 177 mL

**Q.** What about the foam height (cycle 7, SLES 0.2 wt. %, second surfactant 0.005 wt. %) of the same substance?
**A.** 185.67 mL

**Q.** And the foam height (cycle 8, SLES 0.2 wt. %, second surfactant 0.005 wt. %)?
**A.** 188.3 mL

**Q.** And the foam height (cycle 9, SLES 0.2 wt. %, second surfactant 0.005 wt. %)?
**A.** 193.67 mL

**Q.** And the foam height (cycle 10, SLES 0.2 wt. %, second surfactant 0.005 wt. %)?
**A.** 200 mL

**Q.** And the foam height (cycle 11, SLES 0.2 wt. %, second surfactant 0.005 wt. %)?
**A.** 202.3 mL

**Q.** And the foam height (cycle 12, SLES 0.2 wt. %, second surfactant 0.005 wt. %)?
**A.** 204.67 mL

**Q.** What about the foam height (cycle 13, SLES 0.2 wt. %, second surfactant 0.005 wt. %) of the same substance?
**A.** 210 mL

**Q.** What about the foam height (cycle 14, SLES 0.2 wt. %, second surfactant 0.005 wt. %) of the same substance?
**A.** 213 mL

**Q.** And the foam height (cycle 15, SLES 0.2 wt. %, second surfactant 0.005 wt. %)?
**A.** 217 mL

**Q.** What about the foam height (cycle 16, SLES 0.2 wt. %, second surfactant 0.005 wt. %) of the same substance?
**A.** 219.3 mL

**Q.** And the foam height (cycle 17, SLES 0.2 wt. %, second surfactant 0.005 wt. %)?
**A.** 221.3 mL

**Q.** And the foam height (cycle 18, SLES 0.2 wt. %, second surfactant 0.005 wt. %)?
**A.** 222.67 mL

**Q.** And the foam height (cycle 19, SLES 0.2 wt. %, second surfactant 0.005 wt. %)?
**A.** 224.3 mL

**Q.** What about the foam height (cycle 20, SLES 0.2 wt. %, second surfactant 0.005 wt. %) of the same substance?
**A.** 227.67 mL

**Q.** What about the foam height (cycle 21, SLES 0.2 wt. %, second surfactant 0.005 wt. %) of the same substance?
**A.** 228.3 mL

**Q.** And the foam height (cycle 22, SLES 0.2 wt. %, second surfactant 0.005 wt. %)?
**A.** 231 mL

**Q.** What about the foam height (cycle 23, SLES 0.2 wt. %, second surfactant 0.005 wt. %) of the same substance?
**A.** 232.67 mL

**Q.** And the foam height (cycle 24, SLES 0.2 wt. %, second surfactant 0.005 wt. %)?
**A.** 234.3 mL

**Q.** What about the foam height (cycle 25, SLES 0.2 wt. %, second surfactant 0.005 wt. %) of the same substance?
**A.** 235.3 mL

**Q.** And the foam height (cycle 26, SLES 0.2 wt. %, second surfactant 0.005 wt. %)?
**A.** 237 mL

**Q.** And the foam height (cycle 27, SLES 0.2 wt. %, second surfactant 0.005 wt. %)?
**A.** 237.67 mL

**Q.** What about the foam height (cycle 28, SLES 0.2 wt. %, second surfactant 0.005 wt. %) of the same substance?
**A.** 239 mL

**Q.** And the foam height (cycle 29, SLES 0.2 wt. %, second surfactant 0.005 wt. %)?
**A.** 239.67 mL

**Q.** What about the foam height (cycle 30, SLES 0.2 wt. %, second surfactant 0.005 wt. %) of the same substance?
**A.** 240 mL

**Q.** What about the foam height (cycle 31, SLES 0.2 wt. %, second surfactant 0.005 wt. %) of the same substance?
**A.** 240.67 mL

**Q.** What about the foam height (cycle 32, SLES 0.2 wt. %, second surfactant 0.005 wt. %) of the same substance?
**A.** 241.3 mL

**Q.** And the foam height (cycle 33, SLES 0.2 wt. %, second surfactant 0.005 wt. %)?
**A.** 242.3 mL

**Q.** And the foam height (cycle 34, SLES 0.2 wt. %, second surfactant 0.005 wt. %)?
**A.** 243 mL

**Q.** And the foam height (cycle 35, SLES 0.2 wt. %, second surfactant 0.005 wt. %)?
**A.** 243 mL

**Q.** And the foam height (cycle 36, SLES 0.2 wt. %, second surfactant 0.005 wt. %)?
**A.** 243.67 mL

**Q.** What about the foam height (cycle 37, SLES 0.2 wt. %, second surfactant 0.005 wt. %) of the same substance?
**A.** 244 mL

**Q.** What about the foam height (cycle 38, SLES 0.2 wt. %, second surfactant 0.005 wt. %) of the same substance?
**A.** 245.3 mL

**Q.** What about the foam height (cycle 39, SLES 0.2 wt. %, second surfactant 0.005 wt. %) of the same substance?
**A.** 245 mL

**Q.** And the foam height (cycle 40, SLES 0.2 wt. %, second surfactant 0.005 wt. %)?
**A.** 245 mL

**Q.** And the foam height (cycle 41, SLES 0.2 wt. %, second surfactant 0.005 wt. %)?
**A.** 245.67 mL

**Q.** And the foam height (cycle 42, SLES 0.2 wt. %, second surfactant 0.005 wt. %)?
**A.** 246 mL

**Q.** And the foam height (cycle 43, SLES 0.2 wt. %, second surfactant 0.005 wt. %)?
**A.** 246 mL

**Q.** And the foam height (cycle 44, SLES 0.2 wt. %, second surfactant 0.005 wt. %)?
**A.** 246.67 mL

**Q.** And the foam height (cycle 45, SLES 0.2 wt. %, second surfactant 0.005 wt. %)?
**A.** 246.67 mL

**Q.** What about the foam height (cycle 46, SLES 0.2 wt. %, second surfactant 0.005 wt. %) of the same substance?
**A.** 246.67 mL

**Q.** What about the foam height (cycle 47, SLES 0.2 wt. %, second surfactant 0.005 wt. %) of the same substance?
**A.** 247 mL

**Q.** And the foam height (cycle 48, SLES 0.2 wt. %, second surfactant 0.005 wt. %)?
**A.** 247.67 mL

**Q.** What about the foam height (cycle 49, SLES 0.2 wt. %, second surfactant 0.005 wt. %) of the same substance?
**A.** 247.67 mL

**Q.** What about the foam height (cycle 50, SLES 0.2 wt. %, second surfactant 0.005 wt. %) of the same substance?
**A.** 248 mL

**Q.** And the foam height (cycle 51, SLES 0.2 wt. %, second surfactant 0.005 wt. %)?
**A.** 248.67 mL

**Q.** What about the foam height (cycle 52, SLES 0.2 wt. %, second surfactant 0.005 wt. %) of the same substance?
**A.** 248.67 mL

**Q.** And the foam height (cycle 53, SLES 0.2 wt. %, second surfactant 0.005 wt. %)?
**A.** 248.67 mL

**Q.** What about the foam height (cycle 54, SLES 0.2 wt. %, second surfactant 0.005 wt. %) of the same substance?
**A.** 250 mL

**Q.** What about the foam height (cycle 55, SLES 0.2 wt. %, second surfactant 0.005 wt. %) of the same substance?
**A.** 250.3 mL

**Q.** And the foam height (cycle 56, SLES 0.2 wt. %, second surfactant 0.005 wt. %)?
**A.** 251.3 mL

**Q.** What about the foam height (cycle 57, SLES 0.2 wt. %, second surfactant 0.005 wt. %) of the same substance?
**A.** 250.3 mL

**Q.** What about the foam height (cycle 58, SLES 0.2 wt. %, second surfactant 0.005 wt. %) of the same substance?
**A.** 250 mL

**Q.** And the foam height (cycle 59, SLES 0.2 wt. %, second surfactant 0.005 wt. %)?
**A.** 251 mL

**Q.** What about the foam height (cycle 60, SLES 0.2 wt. %, second surfactant 0.005 wt. %) of the same substance?
**A.** 251.3 mL

**Q.** What about the foam height (cycle 61, SLES 0.2 wt. %, second surfactant 0.005 wt. %) of the same substance?
**A.** 251.67 mL

**Q.** What about the foam height (cycle 62, SLES 0.2 wt. %, second surfactant 0.005 wt. %) of the same substance?
**A.** 252.67 mL

**Q.** What about the foam height (cycle 63, SLES 0.2 wt. %, second surfactant 0.005 wt. %) of the same substance?
**A.** 252 mL

**Q.** And the foam height (cycle 64, SLES 0.2 wt. %, second surfactant 0.005 wt. %)?
**A.** 253 mL

**Q.** What about the foam height (cycle 65, SLES 0.2 wt. %, second surfactant 0.005 wt. %) of the same substance?
**A.** 253.67 mL

**Q.** And the foam height (cycle 66, SLES 0.2 wt. %, second surfactant 0.005 wt. %)?
**A.** 253.67 mL

**Q.** And the foam height (cycle 67, SLES 0.2 wt. %, second surfactant 0.005 wt. %)?
**A.** 253.67 mL

**Q.** What about the foam height (cycle 68, SLES 0.2 wt. %, second surfactant 0.005 wt. %) of the same substance?
**A.** 253 mL

**Q.** What about the foam height (cycle 69, SLES 0.2 wt. %, second surfactant 0.005 wt. %) of the same substance?
**A.** 253 mL

**Q.** What about the foam height (cycle 70, SLES 0.2 wt. %, second surfactant 0.005 wt. %) of the same substance?
**A.** 254 mL

**Q.** And the “onset of foam saturation (in words)” value (single surfactant, 1%, FIG. 1)?
**A.** taking the longest to reach saturation
